Laboratory results published in PMC11162475, “Rule-based omics mining reveals antimicrobial macrocyclic peptides against drug-resistant clinical isolates” (Nature Communications, 2024).
Values after ≈ are worked out from the molar mass of the structure shown.

How the values were obtained:
Assay type in all cases: cell-based
[1] = tested on: Bacillus subtilis 168; experiment: microbe, parasite or virus in culture
Experimental: (§1) For MIC determination, Staphylococcus aureus ATCC25923, Bacillus subtilis 168, Micrococcus luteus DSM1790, Enterococcus faecalis OG1RF, Enterococcus faecium MCC2763, Escherichia coli DH5α and Pseudomonas aeruginosa PAO1 were used as indicator strains. Nisin and vancomycin were used as positive controls. A dilution series of massatide A, massatide B, vancomycin (16, 8, 4, 2, 1, 0.5, 0.25, 0.125, 0.0625, 0.0313 μg/mL) and sistertide A1, kebanetide A1, kebanetide A2, nisin (64, 32, 16, 8, 4, 2, 1, 0.5, 0.25, 0.125 μg/mL) were prepared in 96-well plate from 1–10th column. The indicator strains were added to the compound-containing well. The indicator strain culture with no antibiotics was prepared in the 11th column. The 12th column was filled with 200 μL empty MHB medium. The 96-well plate was incubated at 37 °C for 20 h (30 °C for M. luteus and B. subtilis). The OD600 was detected on MULTISKAN Sky (Thermo Scientific) and MIC values were determined. The MIC values of clinical isolates were determined by Sichuan Primed Shines Bio-tech Co., Ltd. (China) following similar protocol. Levofloxacin was used as a positive control.

[2] = tested on: Enterococcus faecalis OG1RF; experiment: microbe, parasite or virus in culture; settings: 20 h
Experimental: as §1

[3] = tested on: Enterococcus faecium MCC2763; experiment: microbe, parasite or virus in culture
Experimental: as §1

[4] = tested on: Micrococcus luteus DSM1790; experiment: microbe, parasite or virus in culture
Experimental: as §1

[5] = tested on: Staphylococcus aureus ATCC25923; experiment: microbe, parasite or virus in culture
Experimental: as §1

[6] = tested on: Micrococcus luteus DSM1790; experiment: Kirby-Bauer assay, zone of inhibition (agar well); settings: M. luteus DSM1790; 10 μL DMSO stock (3.2 or 1.6 mg/mL) in well of soft LB agar, 30 °C, 20 h
Experimental: The stock solution of massatide A (1) and B (1a) 3.2 mg/mL were prepared in DMSO. 40 μL overnight culture of Micrococcus luteus DSM1790 was added to 20 mL soft Luria-Bertani agar (1% agar), and then poured into a plate. 10 μL tip was used to make two wells on the plate. 10 μL massatide A (1) or B (1a) solution was added in one of the wells, while in the other well, 10 μL DMSO was added as a negative control. The plates were incubated at 30 °C for 20 h to observe the zone of inhibition. Staphylococcus aureus ATCC25923 was also used to observe the inhibition zone using a similar method. The only difference is incubating at 37 °C. Stock solutions of sistertide A1, kebanetide A1 and A2 were 3.2 mg/mL, 1.6 mg/mL and 1.6 mg/mL, respectively. The method to observe the activity of these compounds individually was the same as that of massatide.

[7] = tested on: Escherichia coli DH5α; settings: Escherichia coli DH5α; dilution series in 96-well plate, MHB, 37 °C, 20 h, OD600
Experimental: as §1

[8] = tested on: Pseudomonas aeruginosa PAO1; settings: Pseudomonas aeruginosa PAO1; dilution series in 96-well plate, MHB, 37 °C, 20 h, OD600
Experimental: as §1

| Molecule | MIC ([1]; 168, 20 h) | MIC ([2]; OG1RF) | MIC ([3]; MCC2763, 20 h) | MIC ([4]; DSM1790, 20 h) | MIC ([5]; ATCC25923, 20 h) | inhibitory activity (zone of inhibition) [6] | MIC ([1]; Bacillus subtilis 168, dilution series in 96-well plate, MHB, 30 °C, 20 h, OD600) | MIC ([2]; Enterococcus faecalis OG1RF, dilution series in 96-well plate, MHB, 37 °C, OD600) | MIC ([3]; Enterococcus faecium MCC2763, dilution series in 96-well plate, MHB, 37 °C, 20 h, OD600) | MIC ([4]; Micrococcus luteus DSM1790, dilution series in 96-well plate, MHB, 30 °C, 20 h, OD600) | MIC ([5]; Staphylococcus aureus ATCC25923, dilution series in 96-well plate, MHB, 37 °C, 20 h, OD600) | MIC [7] | MIC [8] |
| --- | --- | --- | --- | --- | --- | --- | --- | --- | --- | --- | --- | --- | --- |
| C=C1NC(=O)C(N(C)C)C(C)SC[C@@H](C(=O)N[C@H](C(=O)N[C@@H](C)C(=O)N[C@H](C)C(=O)N[C@@H](C)C(=O)N/C(=C\C)C(=O)N[C@@H](C)C(=O)N[C@H](C)C(=O)N[C@@H](Cc2ccccc2)C(=O)N[C@H](C(=O)N[C@@H](C)C(=O)N[C@H](C)C(=O)N[C@@H](CCC(N)=O)C(=O)N[C@@H](Cc2ccccc2)C(=O)N[C@H](C)C(=O)N[C@@H](C)C(=O)N[C@@H](CCCCN)C(=O)NC2C(=O)N[C@@H](C(C)C)C(=O)N[C@@H](C)C(=O)NCC(=O)NCC(=O)N/C=C\SC2C)C(C)C)[C@@H](C)CC)NC(=O)[C@H](C)NC(=O)[C@@H]2CCCN2C1=O (some centres unmarked) [kebanetide A2 (5), kebanetide A2] | 32 to 64 µg/mL | 16 µg/mL (≈ 6.72 µM) | 32 µg/mL (≈ 13.4 µM) | 32 µg/mL (≈ 13.4 µM) | >64 µg/mL | exhibited growth inhibition |  |  |  |  |  |  |  |
| kebanetide A1 [Kebanetide A1 (4)] |  |  |  |  |  | exhibited growth inhibition | 8 µg/mL | 16 µg/mL | 32 µg/mL | 8 µg/mL | 64 µg/mL | >64 µg/mL | >64 µg/mL |
